Data reported in article PMC7221733, “Synthetic Kavalactone Analogues with Increased Potency and Selective Anthelmintic Activity against Larvae of Haemonchus contortus In Vitro” (Molecules, 2020).
Read-outs that look alike come from different tables or passages of the source.

Columns and labels:
[1] = tested on: MCF10A, non-tumorigenic breast epithelial cells; set-up: method as in PMID 30739078; details: in vitro cell proliferation assay; cited from earlier work
Haemonchus contortus [2] = tested on: Haemonchus contortus; set-up: method as in PMID 30739078; details: cited from earlier work; for Phenotype induced in treated larvae / IC50: previous study; for IC50: purchased / isolated kavalactones, read-out: IC50 for inhibition of larval (L4) development of H. contortus
Haemonchus contortus [3] = assay: Larval development assay (xL3 to L4) of H. contortus in vitro; format: cell-based; details: for IC50: read-out: Inhibition of Larval Development in H. Contortus IC50 (µM) ± SEM; for Anthelmintic activity in the larval development assay (in words): dilution series commencing at 100 µM
Experimental: The Haecon-5 strain of H. contortus was produced in experimental sheep, according to animal ethics guidelines of the University of Melbourne, Australia (permit no.1413429). The feces were collected from the infected sheep and incubated at 27 °C for 1 week, allowing first-stage larvae to emerge and develop to third-stage larvae (L3s). L3s were collected and stored at 10 °C until used in experiments; xL3s were prepared by treating L3s with 0.15% v/v sodium hypochlorite (NaClO) and incubated for 20 min at 38 °C, and subsequently washed five times with sterile physiological saline (pH 7.0). These xL3s were immediately incubated at 38 °C in sterile Luria Bertani (LB) broth supplemented with 100 IU/ml of penicillin, 100 µg/ml of streptomycin, and […] of amphotericin B (fungizone, antibiotic—antimycotic; cat. no. 15240-062; Gibco, Thermo Fisher Scientific, Waltham, MA, USA); this supplemented medium was designated as LB*.
In our previous study, larval development-inhibition results guided the fractionation of the active extract from P. methysticum, and the findings were consistent with subsequent potency assessments of the purified kavalactones. Therefore, the developmental inhibition assay for H. contortus was used to determine the activity/potency of the kavalactone analogues synthesized in the present study. In brief, all synthesized compounds as well as monepantel (Zolvix, Elanco Animal Health, Australia) and moxidectin (Cydectin, Virbac, France) (two positive controls) were individually tested for inhibition of larval development in H. contortus using an 18-point, two-fold dilution series, commencing at 100 µM. Compound solutions (in dimethyl sulfoxide [DMSO] plus LB*) were prepared and added to 96-well flat bottom plates to achieve the desired final concentrations in a final volume of 100 µl, and xL3s (as described in Section 3.2) were dispensed into individual wells at a density of 300 worms per well (in 50 µl of LB*). Matched concentrations of DMSO (0.25% in LB*) were used as negative (untreated) controls. The plates were incubated (10% v/v CO2) at 38 °C for 7 days. Larvae in each well were fixed with 50 µl of 1% iodine at 7 days, and the number of xL3s that developed to L4s in each well was counted by light microscopic examination at 20× magnification. L4s were differentiated from xL3s by their well-developed mouth and pharynx characteristics. The assay was repeated three times on different days using three replicates in each assay. The half-maximum inhibitory concentration (IC50) of each compound was determined by fitting the log10-transformed concentration to a variable slope four-parameter model using the GraphPad Prism (v. 8.3.1) software (GraphPad Software Inc., San Diego, CA, USA).

[4] = tested on: HepG2 human hepatoma cells; assay: Cytotoxicity on HepG2 cells (CellTiter-Glo cell viability assay); format: cell-based; details: for EC50: Homo sapiens, read-out: HepG2 EC50
Experimental: Synthesized compounds were tested for their toxicity on HepG2 human hepatoma cells, as described previously. In brief, compounds were tested in a 10-point, two-fold dilution series, commencing at 40 µM. The cells were cultured in Dulbecco’s modified Eagle’s medium (DMEM) supplemented with 10% fetal bovine serum (FBS) and incubated at 37 °C with 5% v/v CO2. The cells were seeded into 384-well plates at a density of 1 × 10^3 per well and exposed to compounds for 48 h. The toxicity was determined by CellTiter-Glo® cell viability assay (Promega, USA), which assessed the number of viable cells based on the quantity of ATP present. Matched percentages of etoposide and DMSO were used as positive and negative (untreated) controls, respectively. The EC50 values were determined as described in Section 3.3, and the selectivity index was calculated by dividing the EC50 value for HepG2 cells by the IC50 value for H. contortus.

[5] = Haemonchus contortus, 168 h, xL3 to L4 development, 7 days, synthesized compounds, mean ± SEM
[6] = HepG2, 48 h exposure, CellTiter-Glo, highest concentration 40 µM
[7] = xL3 to L4 development, 7 days, synthesized compounds, mean ± SEM

**Q.** With `COC1=CC(=O)O[C@@H](CCc2ccccc2)C1` [dihydrokavain, reference compound] as the compound, how does the “Toxicity on MCF10A cells” value [1] read?
**A.** limited toxicity

**Q.** And the “Phenotype induced in treated larvae” value (Haemonchus contortus [2])?
**A.** lethal ‘evisceration’ (Evi) phenotype

**Q.** And the IC50 (Haemonchus contortus [2])?
**A.** 208 µM

**Q.** Which IC50 (Haemonchus contortus [3]; [5]) does the source give for `COc1cc(/C=C/c2ccc(C#N)cc2)oc(=O)c1` [Compound 13] here?
**A.** > 100 µM

**Q.** What about the “Anthelmintic activity in the larval development assay (in words)” value (from here on “Anthelmintic activity”) (Haemonchus contortus [3]) of the same compound?
**A.** inactive at the highest concentration tested

**Q.** What about the EC50 [4, 6] of the same compound?
**A.** > 40 µM

**Q.** For `COc1ccc(/C=C/c2cc(OC)cc(=O)o2)cc1` [Compound 2, yangonin], which “Toxicity on MCF10A cells” value [1] is on record?
**A.** limited toxicity

**Q.** And the “Phenotype induced in treated larvae” value (Haemonchus contortus [2])?
**A.** lethal ‘evisceration’ (Evi) phenotype

**Q.** What about the IC50 (Haemonchus contortus [2]) of the same compound?
**A.** 23.7 µM

**Q.** And the IC50 (Haemonchus contortus [3]; [5])?
**A.** 15 ± 3 µM

**Q.** What about the EC50 [4, 6] of the same compound?
**A.** > 40 µM

**Q.** What does the source list for `COc1cc(/C=C/c2ccc(N3CCNCC3)cc2)oc(=O)c1` [Compound 11]?
**A.** IC50 (Haemonchus contortus [3]; [5]): > 100 µM; Anthelmintic activity in the larval development assay (in words) (Haemonchus contortus [3]): inactive; EC50 [4, 6]: > 40 µM

**Q.** With `COc1cc(/C=C/c2ccc(OC(F)F)cc2)oc(=O)c1` [Compound 4] as the compound, how does the IC50 (Haemonchus contortus [3]; [5]) read?
**A.** 8.9 ± 0.3 µM

**Q.** And the EC50 [4, 6]?
**A.** > 40 µM

**Q.** With `COc1cc(/C=C/c2ccc(C(F)(F)F)cc2)oc(=O)c1` [Compound 8] as the compound, how does the IC50 (Haemonchus contortus [3]; [5]) read?
**A.** 10.3 ± 1.2 µM

**Q.** What about the EC50 [4, 6] of the same compound?
**A.** > 40 µM

**Q.** With `COc1cc(/C=C/c2cccc(C#N)c2)oc(=O)c1` [Compound 17] as the compound, how does the IC50 (Haemonchus contortus [3]; [5]) read?
**A.** > 100 µM

**Q.** What about the EC50 [4, 6] of the same compound?
**A.** > 40 µM

**Q.** Which IC50 (Haemonchus contortus [3]; [5]) does the source give for `COc1cc(/C=C/c2ccc(N(C)C)cc2)oc(=O)c1` [Compound 9] here?
**A.** > 50 µM

**Q.** And the “Anthelmintic activity” value (Haemonchus contortus [3])?
**A.** inactive at the highest concentration tested

**Q.** What about the EC50 [4, 6] of the same compound?
**A.** > 40 µM

**Q.** For `COc1cc(/C=C/c2ccc(Cl)cc2)oc(=O)c1` [Compound 6], which IC50 (Haemonchus contortus [3]; [5]) is on record?
**A.** 12.4 ± 3.5 µM

**Q.** What about the EC50 [4, 6] of the same compound?
**A.** > 40 µM

**Q.** With `COc1cc(/C=C/c2ccccc2OC)oc(=O)c1` [Compound 14] as the compound, how does the IC50 (Haemonchus contortus [3]; [5]) read?
**A.** 61.9 µM

**Q.** And the IC50 (Haemonchus contortus [3]; [7])?
**A.** > 100 µM

**Q.** And the EC50 [4, 6]?
**A.** > 40 µM

**Q.** With `COC(=O)c1ccc(/C=C/c2cc(OC)cc(=O)o2)cc1` [Compound 12] as the compound, how does the IC50 (Haemonchus contortus [3]; [5]) read?
**A.** > 100 µM

**Q.** What about the “Anthelmintic activity” value (Haemonchus contortus [3]) of the same compound?
**A.** inactive at the highest concentration tested

**Q.** And the EC50 [4, 6]?
**A.** > 40 µM

**Q.** For `CO/N=C1\C[C@]2(C[C@@H]3C[C@@H](C/C=C(\C)C[C@@H](C)/C=C/C=C4\CO[C@@H]5[C@H](O)C(C)=C[C@@H](C(=O)O3)[C@]45O)O2)O[C@H](/C(C)=C/C(C)C)[C@H]1C` [Moxidectin, moxidectin, reference compound], which IC50 (Haemonchus contortus [3]; [5]) is on record?
**A.** 0.02 µM

**Q.** What does the source list for `COc1cc(/C=C/c2ccc3c(c2)OCO3)oc(=O)c1` [Compound 16]?
**A.** IC50 (Haemonchus contortus [3]; Haemonchus contortus, 168 h): > 100 µM; EC50 ([4]; HepG2, 48 h): > 40 µM

**Q.** What does the source list for `COc1cc(/C=C/c2ccccc2)oc(=O)c1` [Compound 1, desmethoxyyangonin]?
**A.** Toxicity on MCF10A cells [1]: limited toxicity; Exposure time sufficient to induce the Evi phenotype (Haemonchus contortus [2]; H. contortus): 30 h; Phenotype induced in treated larvae (Haemonchus contortus [2]): lethal ‘evisceration’ (Evi) phenotype; IC50 (Haemonchus contortus [2]): 31.7 µM; IC50 (Haemonchus contortus [3]; [5]): 37.1 ± 3.1 µM; EC50 [4, 6]: > 40 µM

**Q.** For `COc1cc(/C=C/c2ccc(N3CCOCC3)cc2)oc(=O)c1` [Compound 10], which IC50 (Haemonchus contortus [3]; [5]) is on record?
**A.** 6.4 ± 0.2 µM

**Q.** And the EC50 [4, 6]?
**A.** > 40 µM

**Q.** For `COc1cc(/C=C/c2ccc(OC)nc2)oc(=O)c1` [Compound 19], which IC50 (Haemonchus contortus [3]; [5]) is on record?
**A.** > 100 µM

**Q.** What about the “Anthelmintic activity” value (Haemonchus contortus [3]) of the same compound?
**A.** inactive at the highest concentration tested

**Q.** What about the EC50 [4, 6] of the same compound?
**A.** > 40 µM

**Q.** Which IC50 (Haemonchus contortus [3]; [5]) does the source give for `C[C@](C#N)(COc1cc(C#N)ccc1C(F)(F)F)NC(=O)c1ccc(SC(F)(F)F)cc1` [Monepantel, monepantel, reference compound] here?
**A.** 0.07 ± 0.01 µM

**Q.** For `COc1cc(/C=C/c2ccc(Oc3ccccc3)cc2)oc(=O)c1` [Compound 5], which IC50 (Haemonchus contortus [3]; [5]) is on record?
**A.** 5.2 ± 2.2 µM

**Q.** And the EC50 [4, 6]?
**A.** > 40 µM

**Q.** What does the source list for `COc1cc(/C=C/c2ccc(OC(F)(F)F)cc2)oc(=O)c1` [Compound 3]?
**A.** IC50 (Haemonchus contortus [3]; [5]): 1.9 ± 0.1 µM; EC50 [4, 6]: > 40 µM; Selectivity index (HepG2 EC50 / H. contortus IC50) ([4]; against H. contortus): > 20 fold

**Q.** With `COc1cc(/C=C/c2ccc(C)cc2)oc(=O)c1` [Compound 7] as the compound, how does the IC50 (Haemonchus contortus [3]; [5]) read?
**A.** 12.6 ± 2.1 µM

**Q.** And the EC50 [4, 6]?
**A.** > 40 µM

**Q.** For `COC(=O)c1cccc(/C=C/c2cc(OC)cc(=O)o2)c1` [Compound 18], which IC50 (Haemonchus contortus [3]; [5]) is on record?
**A.** > 100 µM

**Q.** What about the EC50 [4, 6] of the same compound?
**A.** > 40 µM

**Q.** With `CC(C)C[C@H](NC(=O)[C@H](Cc1ccccc1)NC(=O)c1cnccn1)B(O)O` [Bortezomib, reference compound] as the compound, how does the EC50 [4, 6] read?
**A.** 0.01 µM

**Q.** For `COc1cccc(/C=C/c2cc(OC)cc(=O)o2)c1` [Compound 15], which IC50 (Haemonchus contortus [3]; [5]) is on record?
**A.** > 100 µM

**Q.** And the IC50 (Haemonchus contortus [3]; [7])?
**A.** 61.9 ± 7.3 µM

**Q.** And the EC50 [4, 6]?
**A.** > 40 µM
